Test results: patent US9688699B2, “3-(pyrimidine-2-yl)imidazo[1,2-a]pyridines” (Bayer Pharma Aktiengesellschaft, priority 2014, dated 2017)
Structures can show the parent of a compound that is named as a salt.

Tests used:
[1] = molecular target: T1, human phosphodiesterase 5 (PDE 5) (Homo sapiens, UniProt O76074); assay: Inhibition of human phosphodiesterase 5 (PDE 5) (B-3); format: biochemical; settings: PDE 5 preparation from human platelets; [8-3H] cGMP substrate, SPA; in some cases means of individual determinations
T1 construct: PDE 5 preparations are obtained from human platelets by disruption; from tissue; host or cells: human platelets (Mono Q ion exchange fractions with PDE 5 activity)
Summary of the method: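 Enzyme partially purified from human platelets by Mono Q ion exchange; [8-3H]cGMP substrate (0.025 μCi), Tris-HCl pH 7.5 with MgCl2/EDTA, <70% conversion, 60 min at room temperature. Compounds tested at 4 to 0.0018 μM final; yttrium SPA bead read-out, IC50 from concentration–% inhibition plot.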

[2] = molecular target: T2, recombinant guanylate cyclase reporter cell line (Rattus norvegicus, UniProt P19686+P20595); assay: Effect on a recombinant guanylate cyclase reporter cell line (B-2); format: cell-based; settings: MEC = minimum effective concentration, in some cases mean values for individual determinations
T2 construct: expressed in transfected cells
T2 sequence (P19686 1-690): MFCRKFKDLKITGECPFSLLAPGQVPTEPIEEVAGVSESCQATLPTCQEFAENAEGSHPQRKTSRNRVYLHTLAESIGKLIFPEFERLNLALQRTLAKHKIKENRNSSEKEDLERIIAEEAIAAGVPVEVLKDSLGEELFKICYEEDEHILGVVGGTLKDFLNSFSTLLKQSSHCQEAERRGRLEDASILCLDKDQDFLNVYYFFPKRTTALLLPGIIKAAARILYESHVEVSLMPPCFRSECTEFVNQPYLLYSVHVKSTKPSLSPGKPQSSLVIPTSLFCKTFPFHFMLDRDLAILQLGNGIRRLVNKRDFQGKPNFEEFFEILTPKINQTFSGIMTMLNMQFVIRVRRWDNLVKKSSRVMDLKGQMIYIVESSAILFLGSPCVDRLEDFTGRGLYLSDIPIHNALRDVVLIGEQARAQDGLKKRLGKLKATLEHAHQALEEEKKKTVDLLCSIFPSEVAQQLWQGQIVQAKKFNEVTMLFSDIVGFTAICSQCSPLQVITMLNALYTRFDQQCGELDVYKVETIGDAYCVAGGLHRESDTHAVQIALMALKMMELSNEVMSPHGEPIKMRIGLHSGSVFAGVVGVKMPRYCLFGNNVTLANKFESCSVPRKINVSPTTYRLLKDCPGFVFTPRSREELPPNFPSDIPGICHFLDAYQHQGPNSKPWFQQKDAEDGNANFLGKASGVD
T2 sequence (P20595 1-619): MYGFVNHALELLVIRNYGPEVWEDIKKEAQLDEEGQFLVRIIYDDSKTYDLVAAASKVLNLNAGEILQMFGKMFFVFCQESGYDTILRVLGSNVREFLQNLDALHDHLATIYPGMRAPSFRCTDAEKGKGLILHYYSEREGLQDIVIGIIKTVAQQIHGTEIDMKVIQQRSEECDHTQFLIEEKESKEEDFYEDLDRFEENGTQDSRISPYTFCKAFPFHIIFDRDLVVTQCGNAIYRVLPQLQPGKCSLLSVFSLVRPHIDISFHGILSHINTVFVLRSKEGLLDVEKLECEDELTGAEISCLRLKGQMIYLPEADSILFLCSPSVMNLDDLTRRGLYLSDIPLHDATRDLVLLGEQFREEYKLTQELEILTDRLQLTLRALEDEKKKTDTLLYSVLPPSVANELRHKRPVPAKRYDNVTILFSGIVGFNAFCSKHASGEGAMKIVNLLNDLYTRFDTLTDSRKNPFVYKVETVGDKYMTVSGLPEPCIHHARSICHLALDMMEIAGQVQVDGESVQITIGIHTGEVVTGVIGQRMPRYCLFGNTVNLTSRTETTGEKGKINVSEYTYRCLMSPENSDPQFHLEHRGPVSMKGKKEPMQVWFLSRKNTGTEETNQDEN
Summary of the method: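 Cellular guanylate cyclase activity measured in a recombinant reporter cell line expressing rat soluble guanylate cyclase subunits. Values are minimum effective concentrations (MEC), some as means of individual determinations.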

Row | Compound | IC50 [1] | MEC [2]
1 | Cc1nc2c(OCc3c(F)cccc3F)cccn2c1-c1nc(NCCN2CCC(F)(F)C2)c2c(n1)NC(=O)C2(C)C [Example 26, 2-{8-[(2,6-difluorobenzyl)oxy]-2-methylimidazo[1,2-a]pyridin-3-yl}-4-{[2-(3,3-difluoropyrrolidin-1-yl)ethyl]amino)-5,5-dimethyl-5,7-dihydro-6H-pyrrolo[2,3-d]pyrimidin-6-one] | 26 nM | 3 µM
2 | Cc1nc2c(OCc3c(F)cccc3F)cccn2c1-c1nc2c(c(N3CCC[C@H]3CO)n1)C(C)(C)C(=O)N2 [Example 36, 2-{8-[(2,6-difluorobenzyl)oxy]-2-methylimidazo[1,2-a]pyridin-3-yl}-4-[(2S)-2-(hydroxymethyl)pyrrolidin-1-yl]-5,5-dimethyl-5,7-dihydro-6H-pyrrolo[2,3-d]pyrimidin-6-one] | 20 nM | 0.3 µM
3 | Cc1nc2c(OCc3c(F)cccc3F)cccn2c1-c1nc2c(c(N3CCC[C@@H]3CO)n1)C(C)(C)C(=O)N2 [Example 37, 2-{8-[(2,6-difluorobenzyl)oxy]-2-methylimidazo[1,2-a]pyridin-3-yl}-4-[(2R)-2-(hydroxymethyl)pyrrolidin-1-yl]-5,5-dimethyl-5,7-dihydro-6H-pyrrolo[2,3-d]pyrimidin-6-one] | 21 nM | 1 µM
4 | Cc1nc2c(OCc3c(F)ccc(F)c3F)cccn2c1-c1nc2c(c(N3CCC(CC(=O)O)CC3)n1)C(C)(C)C(=O)N2 [Example 38, [1-(5,5-dimethyl-2-{2-methyl-8-[(2,3,6-trifluorobenzyl)oxy]imidazo[1,2-a]pyridin-3-yl}-6-oxo-6,7-dihydro-5H-pyrrolo[2,3-d]pyrimidin-4-yl)piperidin-4-yl]acetic acid] | 36 nM | 3 µM
5 | Cc1nc2c(OCc3c(F)cccc3F)cccn2c1-c1nc(C#N)c2c(n1)NC(=O)C2(C)C [Example 48, 2-{8-[(2,6-Difluorobenzyl)oxy]-2-methylimidazo[1,2-a]pyridin-3-yl}-5,5-dimethyl-6-oxo-6,7-dihydro-5H-pyrrolo[2,3-d]pyrimidine-4-carbonitrile] | 190 nM | 1 µM
6 | Cc1nc2c(OCc3c(F)cccc3F)cccn2c1-c1nc(CN)c2c(n1)NC(=O)C2(C)C [Example 49, 4-(Aminomethyl)-2-{8-[(2,6-difluorobenzyl)oxy]-2-methylimidazo[1,2-a]pyridin-3-yl}-5,5-dimethyl-5,7-dihydro-6H-pyrrolo[2,3-d]pyrimidin-6-one] | 48 nM | 1 µM
7 | Cc1nc2c(OCc3c(F)cccc3F)cccn2c1-c1nc2c(c(C(N)=O)n1)C(C)(C)C(=O)N2 [Example 50, 2-{8-[(2,6-Difluorobenzyl)oxy]-2-methylimidazo[1,2-a]pyridin-3-yl}-5,5-dimethyl-6-oxo-6,7-dihydro-5H-pyrrolo[2,3-d]pyrimidine-4-carboxamide hydrochloride] | 29 nM | 0.3 µM
8 | Cc1nc2c(OCc3c(F)cccc3F)cccn2c1-c1nc2c(c(C(=O)O)n1)C(C)(C)C(=O)N2 [Example 51, 2-{8-[(2,6-Difluorobenzyl)oxy]-2-methylimidazo[1,2-a]pyridin-3-yl}-5,5-dimethyl-6-oxo-6,7-dihydro-5H-pyrrolo[2,3-d]pyrimidine-4-carboxylic acid] | 430 nM | 10 µM

Molecules with a lower IC50 [1], results first:

Row | IC50 [1] | MEC [2] | Compound
9 | 4.6 nM | 0.3 µM | Cc1nc2c(OCc3c(F)cccc3F)cccn2c1-c1nc(NCC2(O)CC2)c2c(n1)NC(=O)C2(C)C [Example 17, 2-{8-[(2,6-difluorobenzyl)oxy]-2-methylimidazo[1,2-a]pyridin-3-yl}-4-{[(1-hydroxycyclopropyl)methyl]amino}-5,5-dimethyl-5,7-dihydro-6H-pyrrolo[2,3-d]pyrimidin-6-one]
10 | 7.1 nM | 1 µM | Cc1nc2c(OCc3c(F)cccc3F)cccn2c1-c1nc(NCCC(F)(F)F)c2c(n1)NC(=O)C2(C)C [Example 19, 2-{8-[(2,6-difluorobenzyl)oxy]-2-methylimidazo[1,2-a]pyridin-3-yl}-5,5-dimethyl-4-[(3,3,3-trifluoropropyl)amino]-5,7-dihydro-6H-pyrrolo[2,3-d]pyrimidin-6-one]
11 | 3.9 nM | 3 µM | Cc1nc2c(OCc3c(F)cccc3F)cccn2c1-c1nc(NC[C@H](O)CO)c2c(n1)NC(=O)C2(C)C [Example 22, 2-{8-[(2,6-difluorobenzyl)oxy]-2-methylimidazo[1,2-a]pyridin-3-yl}-4-{[(2S)-2,3-dihydroxypropyl]amino}-5,5-dimethyl-5,7-dihydro-6H-pyrrolo[2,3-d]pyrimidin-6-one]
12 | 8 nM | 3 µM | Cc1nc2c(OCc3c(F)cccc3F)cccn2c1-c1nc(NC[C@@H](O)CO)c2c(n1)NC(=O)C2(C)C [Example 23, 2-{8-[(2,6-difluorobenzyl)oxy]-2-methylimidazo[1,2-a]pyridin-3-yl}-4-{[(2R)-2,3-dihydroxypropyl]amino}-5,5-dimethyl-5,7-dihydro-6H-pyrrolo[2,3-d]pyrimidin-6-one]
13 | 1.3 nM | 0.3 µM | Cc1nc2c(OCc3c(F)cccc3F)cccn2c1-c1nc(NCCO)c2c(n1)NC(=O)C2(C)C [Example 24, 2-{8-[(2,6-difluorobenzyl)oxy]-2-methylimidazo[1,2-a]pyridin-3-yl}-4-[(2-hydroxyethyl)amino]-5,5-dimethyl-5,7-dihydro-6H-pyrrolo[2,3-d]pyrimidin-6-one trifluoroacetate]
14 | 9.7 nM | 1 µM | Cc1nc2c(OCc3c(F)cccc3F)cccn2c1-c1nc(NCC(N)(CF)CF)c2c(n1)NC(=O)C2(C)C [Example 33, 4-{[2-amino-3-fluoro-2-(fluoromethyl)propyl]amino}-2-{8-[(2,6-difluorobenzyl)oxy]-2-methylimidazo[1,2-a]pyridin-3-yl}-5,5-dimethyl-5,7-dihydro-6H-pyrrolo[2,3-d]pyrimidin-6-one]
15 | 5.3 nM | 1 µM | Cc1nc2c(OCc3c(F)ccc(F)c3F)cccn2c1-c1nc(NCC(C)(C)O)c2c(n1)NC(=O)C2(C)C [Example 34, 4-[(2-hydroxy-2-methylpropyl)amino]-5,5-dimethyl-2-{2-methyl-8-[(2,3,6-trifluorobenzyl)oxy]imidazo[1,2-a]pyridin-3-yl}-5,7-dihydro-6H-pyrrolo[2,3-d]pyrimidin-6-one]
16 | 6 nM | 0.1 µM | Cc1nc2c(OCc3c(F)cccc3F)cccn2c1-c1nc(NCC2(N)CC2)c2c(n1)NC(=O)C2(C)C [Example 42, 4-{[(1-Aminocyclopropyl)methyl]amino}-2-{8-[(2,6-difluorobenzyl)oxy]-2-methylimidazo[1,2-a]pyridin-3-yl}-5,5-dimethyl-5,7-dihydro-6H-pyrrolo[2,3-d]pyrimidin-6-one]
17 | 5.5 nM | 3 µM | Cc1nc2c(OCc3c(F)cccc3F)cccn2c1-c1nc2c(c(-n3cc(O)cn3)n1)C(C)(C)C(=O)N2 [Example 43, 2-{8-[(2,6-Difluorobenzyl)oxy]-2-methylimidazo[1,2-a]pyridin-3-yl}-4-(4-hydroxy-1H-pyrazol-1-yl)-5,5-dimethyl-5,7-dihydro-6H-pyrrolo[2,3-d]pyrimidin-6-one]
18 | 1.5 nM | 1 µM | Cc1nc2c(OCc3c(F)cccc3F)cccn2c1-c1nc2c(c(Oc3cn[nH]c3)n1)C(C)(C)C(=O)N2 [Example 44, 2-{8-[(2,6-Difluorobenzyl)oxy]-2-methylimidazo[1,2-a]pyridin-3-yl}-5,5-dimethyl-4-(1H-pyrazol-4-yloxy)-5,7-dihydro-6H-pyrrolo[2,3-d]pyrimidin-6-one]
